These molecules were tested on SPI1 type III protein secretion of SopE'-'Bla by Salmonella enterica (assay: Primary assay: Type III protein secretion of the chimeric SopE'-'Bla polypeptide by Salmonella enterica). Conditions: read-out: SopE IC50(uM).
Type: cell-based
Text: Primary assay: Type III protein secretion of the chimeric SopE′-′Bla polypeptide by Salmonella enterica. This procedure is a cell-based assay that measures the type III-dependent secretion by Salmonella enterica of a plasmid-encoded chimeric polypeptide whose synthesis can be regulated, and which is endowed with an enzymatic activity that can be monitored […] by hydrolysis of a substrate that is unable to penetrate into the bacterial cytoplasm within the time constraints of the reaction. Thus, the colorimetric reaction is not influenced by SopE′-′Bla polypeptide in the bacterial cytoplasm. Instead, it effectively measures the amount of polypeptide that has been secreted from the S. enterica cytoplasm to the extracellular medium via type III system protein secretion.
The SopE′-′Bla recombinant polypeptide consists of two functionally distinct domains spliced together. The N-terminus domain is encoded by a polynucleotide region specifying the signal for type III secretion of the SopE polypeptide of S. enterica, an effector of the SPI1 type III protein secretion system. The C-terminus domain of SopE′-′Bla consists of a 263 amino acid peptide sequence that corresponds to the TEM-1 β-lactamase expressed by plasmid pBR322 but without its N-terminal signal sequence. The TEM-1 β-lactamase part of the SopE′-′Bla chimeric polypeptide is used as a reporter enzyme. It is capable of hydrolyzing nitrocefin resulting in a product whose accumulation can be monitored by colorimetric detection. The secretion of the SopE′-′Bla chimeric polypeptide from the cytoplasm to the extracellular medium is dependent on type III protein secretion.
For this procedure, cells grown under conditions known to favor a functional SPI1 secretion system are induced for expression of the SopE′-′Bla protein and grown either in the presence or in the absence of putative inhibitors for determined time. Nitrocefin is then added to the various cultures and its hydrolysis are used for quantitation. An inhibitor of Type III protein secretion is generally a compound that reduces the signal of the enzymatic reaction by decreasing the amount of SopE′-′Bla secreted into the extracellular medium.
`Cc1cc(C(=O)N[C@@H](CSCc2ccccc2)C(=O)O)nc(N2CCC(c3ccccc3)CC2)n1` [Compound 2, (R)-3-Benzylsulfanyl-2-{[6-methyl-2-(4-phenylpiperidin-1-yl)pyrimidine-4-carbonyl]amino}propionic acid] showed an IC50 of 34.2 µM. `O=C(N[C@H](Cc1ccc(Cl)cc1)C(=O)O)c1cc(N2CCc3ccccc3C2)nc(Cl)n1` [Compound 5, (R)-2-{[2-Chloro-6-(3,4-dihydro-1H-isoquinolin-2-yl)pyrimidine-4-carbonyl]amino}-3-(4-chlorophenyl)propionic acid] was tested, and the IC50 was 32.7 µM. `O=C(N[C@H](Cc1ccc(Cl)cc1)C(=O)O)c1cc(N2CCc3ccccc3C2)nc(-c2ccc(F)cc2)n1` [Compound 9, (R)-3-(4-Chlorophenyl)-2-{[6-(3,4-dihydro-1H-isoquinolin-2-yl)-2-(4-fluoro-phenyl)Pyrimidine-4-carbonyl]amino}propionic acid] showed an IC50 of 8 µM. For `O=C(N[C@@H](CSCc1ccccc1)C(=O)O)c1cc(N2CCCCC2)nc(N2CCC(c3ccccc3)CC2)n1` [Compound 29, (R)-3-Benzylsulfanyl-2-{[2-(4-phenylpiperidin-1-yl)-6-piperidin-1-yl-pyrimidine-4-carbonyl]amino}propionic acid], the IC50 was 3.2 µM. Molecule `CN1CCN(c2nc(C(=O)N[C@@H](COCc3ccccc3)C(=O)O)cc(N3CCN(c4nccc(C(F)(F)F)n4)CC3)n2)CC1` [Compound 45, (S)-3-Benzyloxy-2-({2-(4-methyl-piperazin-1-yl)-6-[4-(4-trifluoromethylpyrimidin-2-yl)piperazin-1-yl]pyrimidine-4-carbonyl}amino)propionic acid] has an IC50 of 60.7 µM.

Each molecule was assayed on Type III protein secretion of ExoU by P. aeruginosa PA103 (assay: Tertiary assay: Type III-dependent secretion of ExoU by P. aeruginosa PA103). Conditions: Pseudomonas aeruginosa, read-out: ExoU IC50(uM).
Type: cell-based
Text: Tertiary assay: inhibition of Type III protein secretion of effectors from a Pseudomonas aeruginosa system. Type III protein secretion is used by P. aeruginosa to secrete several essential virulence determinants. One effector of the type III protein secretion system of P. aeruginosa PA 103 is the virulence determinants ExoU.
The amount of Type III-dependent secretion of ExoU by P. aeruginosa PA103 can be determined in a cell-based assay by quantification of the 73.9 kDa ExoU protein secreted into the extracellular medium. Such quantitation can be achieved by growing strain PA 103 in a deferrated medium in the presence of nitrilotriacetic acid (an inducer of Type III protein secretion in P. aeruginosa) and either in the presence or absence of putative inhibitors. After a prolonged growth period, the cells are sedimented and the supernatants concentrated by ammonium sulfate precipitation. The proteins in the resuspended pellets are separated by electrophoresis on SDS-polyacrylamide gels. After staining gels with Colloidal Blue™, the 73.9 kDa ExoU band is quantitated by scanning through an imager. The effects of inhibitors on the intensity of the ExoU band may be measured relative to that of untreated controls.
`Cc1cc(C(=O)N[C@@H](CSCc2ccccc2)C(=O)O)nc(N2CCC(c3ccccc3)CC2)n1` [Compound 2, (R)-3-Benzylsulfanyl-2-{[6-methyl-2-(4-phenylpiperidin-1-yl)pyrimidine-4-carbonyl]amino}propionic acid] showed an IC50 greater than 100 µM. In the case of `O=C(N[C@H](Cc1ccc(Cl)cc1)C(=O)O)c1cc(N2CCCc3ccccc32)nc(-c2ccc(-c3ccccc3)cc2)n1` [Compound 33, (R)-2-{[2-Biphenyl-4-yl-6-(3,4-dihydro-2H-quinolin-1-yl)pyrimidine-4-carbonyl]amino}-3-(4-chlorophenyl)propionic acid], the IC50 is reported as 24.4 µM. `O=C(N[C@H](Cc1ccc(Cl)cc1)C(=O)O)c1cc(N2CCCCC2)nc(-c2ccc(-c3ccccc3)cc2)n1` [Compound 34, (R)-2-[(2-Biphenyl-4-yl-6-piperidin-1-yl-pyrimidine-4-carbonyl)amino]-3-(4-chlorophenyl)propionic acid] gave an IC50 of 71 µM. Work on `CC1CCN(c2nc(C(=O)N[C@@H](CSCc3ccccc3)C(=O)O)cc(N3CCN(c4ccccn4)CC3)n2)CC1` [Compound 64, (R)-3-Benzylsulfanyl-2-{[2-(4-methylpiperidin-1-yl)-6-(^4-pyridin-2-yl-piperazin-1-yl)pyrimidine-4-carbonyl]amino}propionic acid] yielded an IC50 of 18.9 µM. For `O=C(N[C@@H](COCc1ccccc1)C(=O)O)c1cc(N2CCN(c3ccccn3)CC2)nc(N2CCN(c3ccccn3)CC2)n1` [Compound 65, (S)-3-Benzyloxy-2-{[2,6-bis-(4-pyridin-2-yl-piperazin-1-yl)pyrimidine-4-carbonyl]-amino}propionic acid], the IC50 was 38.4 µM. In the case of `O=C(N[C@@H](CSCc1ccccc1)C(=O)O)c1cc(N2CCN(c3ccccn3)CC2)nc(N2CCN(c3ccccn3)CC2)n1` [Compound 66, (R)-3-Benzylsulfanyl-2-{[2,6-bis-(4-pyridin-2-yl-piperazin-1-yl)pyrimidine-4-carbonyl]amino}propionic acid], the IC50 is reported as 52.8 µM. With `O=C(NC(Cc1ccc(Cl)cc1)C(=O)O)c1cc(N2CCN(c3ccccn3)CC2)nc(N2CCN(c3ccccn3)CC2)n1` (stereo not drawn) [Compound 67, 2-{[2,6-Bis-(4-pyridin-2-yl-piperazin-1-yl)pyrimidine-4-carbonyl]amino}-3-(4-chlorophenyl)propionic acid] the IC50 was 65.6 µM. In the case of `O=C(NC(Cc1ccc(Cl)cc1)C(=O)O)c1cc(N2CCN(c3ccccn3)CC2)nc(-c2ccc([N+](=O)[O-])cc2)n1` (stereo not drawn) [Compound 68, 3-(4-Chlorophenyl)-2-{[2-(4-nitrophenyl)-6-(4-pyridin-2-yl-piperazin-1-yl)-pyrimidine-4-carbonyl]amino}propionic acid], the IC50 is reported as 21.1 µM. In the case of `CN(C)c1ccc(-c2nc(C(=O)N[C@@H](COCc3ccccc3)C(=O)O)cc(N3CCN(c4ccccn4)CC3)n2)cc1` [Compound 69, (S)-3-Benzyloxy-2-{[2-(4-dimethylaminophenyl)-6-(4-pyridin-2-yl-piperazin-1-yl)-pyrimidine-4-carbonyl]amino}propionic acid], the IC50 is reported as greater than 100 µM. For `CN(C)c1ccc(-c2nc(C(=O)NC(Cc3ccc(Cl)cc3)C(=O)O)cc(N3CCN(c4ccccn4)CC3)n2)cc1` (stereo not drawn) [Compound 70, 3-(4-Chlorophenyl)-2-{[2-(4-dimethylaminophenyl)-6-(4-pyridin-2-yl-piperazin-1-yl)pyrimidine-4-carbonyl]amino}propionic acid], the IC50 was 29.8 µM. For `O=C(N[C@@H](COCc1ccccc1)C(=O)O)c1cc(N2CCN(c3ccccn3)CC2)nc(-c2cccs2)n1` [Compound 71, (S)-3-Benzyloxy-2-{[6-(4-pyridin-2-yl-piperazin-1-yl)-2-thiophen-2-yl-pyrimidine-4-carbonyl]amino}propionic acid], the IC50 was greater than 50 µM. `O=C(N[C@@H](CSCc1ccccc1)C(=O)O)c1cc(N2CCN(c3ccccn3)CC2)nc(-c2ccoc2)n1` [Compound 72, (R)-3-Benzylsulfanyl-2-{[2-furan-3-yl-6-(4-pyridin-2-yl-piperazin-1-yl)pyrimidine-4-carbonyl]amino}propionic acid] was tested, and the IC50 was greater than 50 µM. `O=C(N[C@@H](COCc1ccccc1)C(=O)O)c1cc(N2CCN(c3ccccn3)CC2)nc(-c2ccoc2)n1` [Compound 73, (S)-3-Benzyloxy-2-{[2-furan-3-yl-6-(4-pyridin-2-yl-piperazin-1-yl)pyrimidine-4-carbonyl]amino}propionic acid] showed an IC50 greater than 50 µM. `CC1CCN(c2cc(C(=O)N[C@@H](CSCc3ccccc3)C(=O)O)nc(N3CCN(c4ccccn4)CC3)n2)CC1` [Compound 74, (R)-3-Benzylsulfanyl-2-{[6-(4-methylpiperidin-1-yl)-2-(4-pyridin-2-yl-piperazin-1-yl)pyrimidine-4-carbonyl]amino}propionic acid] was tested, and the IC50 was greater than 50 µM. `CN1CCN(c2cc(C(=O)N[C@@H](CSCc3ccccc3)C(=O)O)nc(N3CCN(c4ccccn4)CC3)n2)CC1` [Compound 75, (R)-3-Benzylsulfanyl-2-{[6-(4-methyl-piperazin-1-yl)-2-(4-pyridin-2-yl-piperazin-1-yl)pyrimidine-4-carbonyl]amino}propionic acid] was tested, and the IC50 was greater than 100 µM. Work on `CN1CCN(c2cc(C(=O)N[C@@H](COCc3ccccc3)C(=O)O)nc(N3CCN(c4ccccn4)CC3)n2)CC1` [Compound 76, (S)-3-Benzyloxy-2-{[6-(4-methyl-piperazin-1-yl)-2-(4-pyridin-2-yl-piperazin-1-yl)-pyrimidine-4-carbonyl]amino}propionic acid] yielded an IC50 greater than 50 µM. `O=C(N[C@@H](CSCc1ccccc1)C(=O)O)c1cc(N2CCC(Cc3ccccc3)CC2)nc(-c2ccc(C(F)(F)F)cc2)n1` [Compound 77, (R)-2-{[6-(4-Benzylpiperidin-1-yl)-2-(4-trifluoromethylphenyl)pyrimidine-4-carbonyl]amino}3-benzylsulfanylpropionic acid] gave an IC50 of 92.8 µM. Work on `O=C(N[C@@H](CSCc1ccccc1)C(=O)O)c1cc(N2CCC(Cc3ccccc3)CC2)nc(-c2ccc(Cl)cc2)n1` [Compound 78, (R)-2-{[6-(4-Benzylpiperidin-1-yl)-2-(4-chlorophenyl)pyrimidine-4-carbonyl]-amino}-3-benzylsulfanylpropionic acid] yielded an IC50 of 42.4 µM. `O=C(NC(Cc1ccc(Cl)cc1)C(=O)O)c1cc(N2CCC(Cc3ccccc3)CC2)nc(-c2ccc(Cl)cc2)n1` (stereo not drawn) [Compound 79, 2-{[6-(4-Benzylpiperidin-1-yl)-2-(4-chlorophenyl)pyrimidine-4-carbonyl]amino}-3-(4-chlorophenyl)propionic acid] showed an IC50 of 64 µM.

— US20050282824A1, “Substituted pyrimidines as inhibitors of bacterial type III protein secretion systems” (priority 2004, published 2005)
